Measured values from patent US11591336B2 (Relay Therapeutics, Inc., priority 2017, dated 2023).
Structures can show the parent of a compound that is named as a salt.

Molecular target: SHP2 (Homo sapiens (Human), UniProt Q06124)
Experiment: SHP2 Allosteric Inhibition Assay (DiFMUP prompt fluorescence)
Assay type: biochemical
Settings: 0.25 nM SHP2 activated with 0.5 μM peptide IRS1_pY1172(dPEG8)pY1222; substrate DiFMUP 100 μM; 25° C.

Sequence of SHP2 (Q06124 whole entry): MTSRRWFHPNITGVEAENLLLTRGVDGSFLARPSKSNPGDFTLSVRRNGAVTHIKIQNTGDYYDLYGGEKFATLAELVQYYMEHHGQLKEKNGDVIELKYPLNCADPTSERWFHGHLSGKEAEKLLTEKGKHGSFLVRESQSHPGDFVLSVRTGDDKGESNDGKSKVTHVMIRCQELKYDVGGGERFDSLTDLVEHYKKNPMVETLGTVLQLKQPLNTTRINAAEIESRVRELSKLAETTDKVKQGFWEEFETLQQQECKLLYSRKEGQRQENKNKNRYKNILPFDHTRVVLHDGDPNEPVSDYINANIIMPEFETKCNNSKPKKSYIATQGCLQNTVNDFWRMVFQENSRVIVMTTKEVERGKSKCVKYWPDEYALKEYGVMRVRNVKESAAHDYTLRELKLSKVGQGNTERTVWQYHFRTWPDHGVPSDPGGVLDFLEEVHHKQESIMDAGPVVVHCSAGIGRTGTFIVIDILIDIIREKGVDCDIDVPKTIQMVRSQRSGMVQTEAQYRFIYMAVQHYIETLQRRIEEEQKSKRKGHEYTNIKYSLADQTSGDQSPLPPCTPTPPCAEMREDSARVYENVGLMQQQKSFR

| SMILES | IC50 [nM] |
| --- | --- |
| CNC(=O)c1ccc2c(c1)NCCN2c1n[nH]c2nc(N3CCC4(CC3)CO[C@@H](C)[C@H]4N)cnc12 [Compound 329, 1-{6-[(3S,4S)-4-amino-3-methyl-2-oxa-8-azaspiro[4.5]decan-8-yl]-1H-pyrazolo[3,4-b]pyrazin-3-yl}-N-methyl-1,2,3,4-tetrahydroquinoxaline-6-carboxamide] | < 1000 |
| C[C@@H]1OCC2(CCN(c3cnc4c(N5CC(=O)Nc6ncncc65)n[nH]c4n3)CC2)[C@@H]1N [Compound 322] | 1000 to 10000 |
| CC1(CN)CCN(c2cnc3c(N4CCC(C)(C)c5ccccc54)n[nH]c3n2)CC1 [Compound 88] | < 1000 |
| C[C@@H]1OCC2(CCN(c3cnc4c(N5CCCc6nc(-c7cnn(C(F)F)c7)ccc65)n[nH]c4n3)CC2)[C@@H]1N [Compound 317] | < 1000 |
| CC1CCN(c2n[nH]c3nc(N4CCC5(CC4)CO[C@@H](C)[C@H]5N)cnc23)c2ccc(C#N)cc21 (some centres unmarked) [Compound 218] | < 1000 |
| C[C@@H]1OCC2(CCN(c3cnc4c(N5CC[C@H](C)c6nc(C(=O)NCCO)ccc65)n[nH]c4n3)CC2)[C@@H]1N [Compound 447] | < 1000 |
| CC1CCN(c2n[nH]c3nc(N4CCC(C)(CN)CC4)cnc23)c2ccc(C#N)cc21 (centres unmarked) [Compound 93] | < 1000 |
| C[C@@H]1OCC2(CCN(c3cnc4c(N5CCCc6nc(C7CCOCC7)ccc65)n[nH]c4n3)CC2)[C@@H]1N [Compound 239] | < 1000 |
| Cn1cc(-c2ccc3c(n2)CCCN3c2n[nH]c3nc(N4CCC5(CC4)COC[C@H]5N)cnc23)cn1 [Compound 290] | < 1000 |
| CN(c1ccnc(N)c1)c1n[nH]c2nc(N3CCC(C)(N)CC3)cnc12 [Compound 491, N4-[6-(4-amino-4-methyl-1-piperidyl)-1H-pyrazolo[3,4-b]pyrazin-3-yl]-N4-methyl-pyridine-2,4-diamine] | 1000 to 10000 |
| C[C@@H]1OCC2(CCN(c3cnc4c(N5CCN(C6COC6)c6cc(C#N)ccc65)n[nH]c4n3)CC2)[C@@H]1N [Compound 398] | < 1000 |
| C[C@@H]1OCC2(CCN(c3cnc4c(N5CC[C@H](C)c6nc(-c7ncc[nH]7)ccc65)n[nH]c4n3)CC2)[C@@H]1N (relative stereo) [Compound 449, (3S,4S)-8-{3-[(4R*)-6-(1H-imidazol-2-yl)-4-methyl-1,2,3,4-tetrahydro-1,5-naphthyridin-1-yl]-1H-pyrazolo[3,4-b]pyrazin-6-yl)-3-methyl-2-oxa-8-azaspiro[4.5]decan-4-amine hydrochloride] | < 1000 |
| Cc1cccc2c1CCCN2c1n[nH]c2nc(N3CCC(C)(CN)CC3)cnc12 [Compound 46] | < 1000 |
| N[C@@H]1CCC12CCN(c1cnc3c(N4CCCc5ncccc54)n[nH]c3n1)CC2 [Compound 339, (1R)-7-[3-(1,2,3,4-tetrahydro-1,5-naphthyridin-1-yl)-1H-pyrazolo[3,4-b]pyrazin-6-yl]-7-azaspiro[3.5]nonan-1-amine] | < 1000 |
| CC1(CN)CCN(c2cnc3c(N4CCCc5c(-c6cccc(Oc7ccccc7)c6)cccc54)n[nH]c3n2)CC1 [Compound 75] | < 1000 |
| C[C@@H]1OCC2(CCN(c3cnc4c(N5CCCc6c5cccc6[N+](=O)[O-])n[nH]c4n3)CC2)[C@@H]1N [Compound 373] | < 1000 |
| C[C@H]1CCN(c2n[nH]c3nc(N4CCC(C)(CN)CC4)cnc23)c2ccc(-c3nnc[nH]3)nc21 [Compound 198, 1-(4-methyl-1-{3-[(4S)-4-methyl-6-(4H-1,2,4-triazol-3-yl)-1,2,3,4-tetrahydro-1,5-naphthyridin-1-yl]-1H-pyrazolo[3,4-b]pyrazin-6-yl}piperidin-4-yl)methanamine] | < 1000 |
| C[C@@H]1OCC2(CCN(c3cnc4c(N5CCN(C)c6ncccc65)n[nH]c4n3)CC2)[C@@H]1N [Compound 301] | < 1000 |
| CO/N=C/c1ccc2c(n1)[C@@H](C)CCN2c1n[nH]c2nc(N3CCC4(CC3)CO[C@@H](C)[C@H]4N)cnc12 [Compound 444, (3S,4S)-8-{3-[(4S)-6-[(1E)-(methoxyimino)methyl]-4-methyl-1,2,3,4-tetrahydro-1,5-naphthyridin-1-yl]-1H-pyrazolo[3,4-b]pyrazin-6-yl}-3-methyl-2-oxa-8-azaspiro[4.5]decan-4-amine hydrochloride] | < 1000 |
| Cc1csc(-c2ccc3c(n2)CCCN3c2n[nH]c3nc(N4CCC5(CC4)CO[C@@H](C)[C@H]5N)cnc23)n1 [Compound 361] | < 1000 |
| CC1(N)CCN(c2cnc3c(Sc4cccnc4C(F)(F)F)n[nH]c3n2)CC1 [Compound 8, 4-methyl-1-(3-((2-(trifluoromethyl)pyridin-3-yl)thio)-1H-pyrazolo[3,4-b]pyrazin-6-yl)piperidin-4-amine] | < 1000 |
| C[C@@H]1OCC2(CCN(c3cnc4c(N5CCNc6ccccc65)n[nH]c4n3)CC2)[C@@H]1N [Compound 234] | < 1000 |
| CNC(=O)N1CCN(c2n[nH]c3nc(N4CCC5(CC4)CO[C@@H](C)[C@H]5N)cnc23)c2cccnc21 [Compound 331, 1-{6-[(3S,4S)-4-amino-3-methyl-2-oxa-8-azaspiro[4.5]decan-8-yl]-1H-pyrazolo[3,4-b]pyrazin-3-yl}-N-methyl-1H,2H,3H,4H-pyrido[2,3-b]pyrazine-4-carboxamide] | < 1000 |
| COC(=O)c1ccc2c(n1)CCCN2c1n[nH]c2nc(N3CCC(C)(CN)CC3)cnc12 [Compound 81] | < 1000 |

| SMILES | IC50 [nM] |
| --- | --- |
| CC1(CN)CCN(c2cnc3c(N4CCC(O)c5ccccc54)n[nH]c3n2)CC1 (centres unmarked) [Compound 119, 1-(6-(4-(aminomethyl)-4-methylpiperidin-1-yl)-1H-pyrazolo[3,4-b]pyrazin-3-yl)-1,2,3,4-tetrahydroquinolin-4-ol] | < 1000 |
| Cc1cnc(-c2ccc3c(n2)CCCN3c2n[nH]c3nc(N4CCC5(CC4)CO[C@@H](C)[C@H]5N)cnc23)s1 [Compound 382] | < 1000 |
| O=C1NC2(CCN(c3cnc4c(N5CCCc6ncccc65)n[nH]c4n3)CC2)CO1 [Compound 215] | 1000 to 10000 |
| C[C@@H]1OCC2(CCN(c3cnc4c(N5CCN(C)c6cnncc65)n[nH]c4n3)CC2)[C@@H]1N [Compound 414] | 1000 to 10000 |
| C[C@@H]1OCC2(CCN(c3cnc4c(N5CCN([C@H]6C[C@@H](O)C6)c6cc(C#N)ccc65)n[nH]c4n3)CC2)[C@@H]1N [Compound 412] | < 1000 |
| Cn1cc(-c2cccc3c2CCCN3c2n[nH]c3nc(N4CCC(C)(N)CC4)cnc23)cn1 [Compound 61] | < 1000 |
| CC1(CN)CCN(c2cnc3c(N4CCCc5cc(S(C)(=O)=O)ccc54)n[nH]c3n2)CC1 [Compound 92] | < 1000 |
| CN1CCN(c2n[nH]c3nc(N4CCC(C)(CN)CC4)cnc23)c2cccnc21 [Compound 186] | < 1000 |
| C[C@@H]1OCC2(CCN(c3cnc4c(N5CCCc6nc(/C=N\O)ccc65)n[nH]c4n3)CC2)[C@@H]1N [Compound 436, (3S,4S)-8-(3-{6-[(1Z)-(hydroxyimino)methyl]-1,2,3,4-tetrahydro-1,5-naphthyridin-1-yl}-1H-pyrazolo[3,4-b]pyrazin-6-yl)-3-methyl-2-oxa-8-azaspiro[4.5]decan-4-amine hydrochloride] | < 1000 |
| CC1(CN)CCN(c2cnc3c(N4CCCc5c(-c6cccnc6)cccc54)n[nH]c3n2)CC1 [Compound 66] | < 1000 |
| N[C@H]1COCC12CCN(c1cnc3c(N4CCCc5ncccc54)n[nH]c3n1)CC2 [Compound 213] | < 1000 |
| C=C(c1ccccc1)c1n[nH]c2nc(N3CCC(C)(CN)CC3)cnc12 [Compound 16, (4-methyl-1-(3-(1-phenylvinyl)-1H-pyrazolo[3,4-b]pyrazin-6-yl)piperidin-4-yl)methanamine] | < 1000 |
| C[C@@H]1CCN(c2n[nH]c3nc(N4CCC5(CC4)CO[C@@H](C)[C@H]5N)cnc23)c2cc(F)cnc21 (single isomer, unassigned) [Compound 262, hydrochloride] | < 1000 |
| CC1(CN)CCN(c2cnc3c(N4CCCc5c4cccc5S(C)(=O)=O)n[nH]c3n2)CC1 [Compound 185] | < 1000 |
| C[C@@H]1OCC2(CCN(c3cnc4c(N5CCN(CC(=O)O)c6cc(C#N)ccc65)n[nH]c4n3)CC2)[C@@H]1N [Compound 423, 2-(4-{6-[(3S,4S)-4-amino-3-methyl-2-oxa-8-azaspiro[4.5]decan-8-yl]-1H-pyrazolo[3,4-b]pyrazin-3-yl}-7-cyano-1,2,3,4-tetrahydroquinoxalin-1-yl)acetic acid] | < 1000 |
| C[C@@H]1OCC2(CCN(c3cnc4c(N5CCCc6c5cccc6N5CCCS5(=O)=O)n[nH]c4n3)CC2)[C@@H]1N [Compound 392] | < 1000 |
| C[C@@H]1OCC2(CCN(c3cnc4c(N5CCN(C)c6nc(C#N)ccc65)n[nH]c4n3)CC2)[C@@H]1N [Compound 383] | < 1000 |
| OCC1CCCCN1c1cnc2c(N3CCCc4ncccc43)n[nH]c2n1 (centres unmarked) [Compound 138] | < 1000 |
| NC(C(=O)O)C1CCN(c2cnc3c(N4CCCc5ncccc54)n[nH]c3n2)CC1 (centres unmarked) [Compound 178, 2-amino-2-{1-[3-(1,2,3,4-tetrahydro-1,5-naphthyridin-1-yl)-1H-pyrazolo[3,4-b]pyrazin-6-yl]piperidin-4-yl}acetic acid dihydrochloride] | 1000 to 10000 |
| CC1(CN)CCN(c2cnc3c(Nc4ccnc(Cl)c4Cl)n[nH]c3n2)CC1 [Compound 500, 6-(4-(Aminomethyl)-4-methylpiperidin-1-yl)-N-(2,3-dichloropyridin-4-yl)-1H-pyrazolo[3,4-b]pyrazin-3-amine hydrochloride] | < 1000 |
| C[C@@H]1OCC2(CCN(c3cnc4c(N5CCN(S(C)(=O)=O)c6ccccc65)n[nH]c4n3)CC2)[C@@H]1N [Compound 325] | < 1000 |
| CC1(CN)CCN(c2cnc3c(N4CCCc5ccccc54)n[nH]c3n2)CC1 [Compound 33, (1-(3-(3,4-dihydroquinolin-1(2H)-yl)-1H-pyrazolo[3,4-b]pyrazin-6-yl)-4-methylpiperidin-4-yl)methanamine] | < 1000 |
| C[C@@H]1OCC2(CCN(c3cnc4c(N5CCCc6c5ccnc6-c5nccs5)n[nH]c4n3)CC2)[C@@H]1N [Compound 424] | < 1000 |
